Reference: ChEMBL document CHEMBL1138438, “Structural-activity relationship study of highly-functionalized imidazolines as potent inhibitors of nuclear transcription factor-kappaB mediated IL-6 production” (Bioorg Med Chem, 2009)
pEC50, pIC50: −log10 of the molar value.

Assays:
HeLa [1] = assay: Cell cycle arrest in TNF-alpha-stimulated human HeLa cells transfected with NFkappaB-Luc assessed as accumulation at diploid G1 phase at 20 uM after 8 hrs by using propidium iodide staining by FACS analysis; assay type: functional
[2] = Cytotoxicity against IL-1-beta-stimulated human whole blood lymphocytes assessed as survival cell count in millions at 1 uM after 24 hrs by trypan blue staining-based hemocytometry
HeLa [3] = assay: Effect on cell cycle arrest in TNF-alpha-stimulated human HeLa cells transfected with NFkappaB-Luc assessed as cell debris level at 20 uM after 8 hrs by using propidium iodide staining by FACS analysis; assay type: functional
HeLa [4] = assay: Effect on cell cycle arrest in human HeLa cells transfected with NFkappaB-Luc assessed as cell aggregate level at 20 uM after 8 hrs by using propidium iodide staining by FACS analysis; assay type: functional
HeLa [5] = assay: Effect on cell cycle arrest in TNF-alpha-stimulated human HeLa cells transfected with NFkappaB-Luc assessed as cell debris level at 0.1 uM after 8 hrs by using propidium iodide staining by FACS analysis; assay type: functional
HeLa [6] = assay: Cell cycle arrest in TNF-alpha-stimulated human HeLa cells transfected with NFkappaB-Luc assessed as accumulation at diploid G1 phase at 1 uM after 8 hrs by using propidium iodide staining by FACS analysis; assay type: functional
Blood [7] = assay: Antiinflammatory activity in human whole blood assessed as inhibition of IL-1-beta-stimulated IL6 production preincubated 2 hrs before IL1-beta challenge measured after 18 hrs by ELISA; assay type: functional, tissue-based
[8] = Cytotoxicity against IL-1-beta-stimulated human whole blood lymphocytes assessed as survival cell count in millions at 3 uM after 24 hrs by trypan blue staining-based hemocytometry
HeLa [9] = assay: Cell cycle arrest in TNF-alpha-stimulated human HeLa cells transfected with NFkappaB-Luc assessed as accumulation at diploid S phase at 20 uM after 8 hrs by using propidium iodide staining by FACS analysis; assay type: functional
HeLa [10] = assay: Cell cycle arrest in TNF-alpha-stimulated human HeLa cells transfected with NFkappaB-Luc assessed as accumulation at diploid G1 phase at 0.05 uM after 8 hrs by using propidium iodide staining by FACS analysis; assay type: functional
HeLa [11] = assay: Effect on cell cycle arrest in TNF-alpha-stimulated human HeLa cells transfected with NFkappaB-Luc assessed as cell aggregate level at 1 uM after 8 hrs by using propidium iodide staining by FACS analysis; assay type: functional
HeLa [12] = assay: Cell cycle arrest in TNF-alpha-stimulated human HeLa cells transfected with NFkappaB-Luc assessed as accumulation at diploid G2 phase at 0.1 uM after 8 hrs by using propidium iodide staining by FACS analysis; assay type: functional
HeLa [13] = assay: Effect on cell cycle arrest in TNF-alpha-stimulated human HeLa cells transfected with NFkappaB-Luc assessed as total background cell aggregate and debris level at 10 uM after 8 hrs by using propidium iodide staining by FACS analysis; assay type: functional
HeLa [14] = assay: Cell cycle arrest in TNF-alpha-stimulated human HeLa cells transfected with NFkappaB-Luc assessed as accumulation at G2/G1 phase at 10 uM after 8 hrs by using propidium iodide staining by FACS analysis; assay type: functional
HeLa [15] = assay: Cell cycle arrest in TNF-alpha-stimulated human HeLa cells transfected with NFkappaB-Luc assessed as accumulation at diploid G2 phase at 5 uM after 8 hrs by using propidium iodide staining by FACS analysis; assay type: functional
HeLa [16] = assay: Effect on cell cycle arrest in TNF-alpha-stimulated human HeLa cells transfected with NFkappaB-Luc assessed as total background cell aggregate and debris level at 20 uM after 8 hrs by using propidium iodide staining by FACS analysis; assay type: functional
HeLa [17] = assay: Effect on cell cycle arrest in TNF-alpha-stimulated human HeLa cells transfected with NFkappaB-Luc assessed as total background cell aggregate and debris level at 0.5 uM after 8 hrs by using propidium iodide staining by FACS analysis; assay type: functional
HeLa [18] = assay: Cell cycle arrest in TNF-alpha-stimulated human HeLa cells transfected with NFkappaB-Luc assessed as accumulation at diploid S phase at 10 uM after 8 hrs by using propidium iodide staining by FACS analysis; assay type: functional
HeLa [19] = assay: Cell cycle arrest in TNF-alpha-stimulated human HeLa cells transfected with NFkappaB-Luc assessed as accumulation at diploid S phase at 0.1 uM after 8 hrs by using propidium iodide staining by FACS analysis; assay type: functional
HeLa [20] = assay: Effect on cell cycle arrest in human HeLa cells transfected with NFkappaB-Luc assessed as total background cell aggregate and debris level at 20 uM after 8 hrs by using propidium iodide staining by FACS analysis; assay type: functional
HeLa [21] = assay: Cell cycle arrest in TNF-alpha-stimulated human HeLa cells transfected with NFkappaB-Luc assessed as accumulation at G2/G1 phase at 0.5 uM after 8 hrs by using propidium iodide staining by FACS analysis; assay type: functional
HeLa [22] = assay: Cell cycle arrest in TNF-alpha-stimulated human HeLa cells transfected with NFkappaB-Luc assessed as accumulation at G2/G1 phase at 0.05 uM after 8 hrs by using propidium iodide staining by FACS analysis; assay type: functional
HeLa [23] = assay: Cell cycle arrest in TNF-alpha-stimulated human HeLa cells transfected with NFkappaB-Luc assessed as accumulation at diploid stage at 5 uM after 8 hrs by using propidium iodide staining by FACS analysis; assay type: functional
[24] = Inhibition of NF-kappaB-mediated gene transcription expressed in TNF-alpha-stimulated human HeLa cells for 30 mins before TNFalpha challenge measured after 8 hrs by steady-glo luciferase reporter gene assay; assay type: cell-based
HeLa [25] = assay: Cell cycle arrest in TNF-alpha-stimulated human HeLa cells transfected with NFkappaB-Luc assessed as accumulation at total S phase at 0.05 uM after 8 hrs by using propidium iodide staining by FACS analysis; assay type: functional
HeLa [26] = assay: Cell cycle arrest in TNF-alpha-stimulated human HeLa cells transfected with NFkappaB-Luc assessed as accumulation at diploid G1 phase at 10 uM after 8 hrs by using propidium iodide staining by FACS analysis; assay type: functional
Blood [27] = assay: Antiinflammatory activity in human whole blood assessed as inhibition of IL-1-beta-stimulated IL6 production preincubated 2 hrs before IL1-beta challenge measured after 22 hrs by ELISA; assay type: functional, tissue-based
HeLa [28] = assay: Effect on cell cycle arrest in TNF-alpha-stimulated human HeLa cells transfected with NFkappaB-Luc assessed as cell aggregate level at 0.5 uM after 8 hrs by using propidium iodide staining by FACS analysis; assay type: functional
HeLa [29] = assay: Effect on cell cycle arrest in TNF-alpha-stimulated human HeLa cells transfected with NFkappaB-Luc assessed as total background cell aggregate and debris level at 5 uM after 8 hrs by using propidium iodide staining by FACS analysis; assay type: functional
HeLa [30] = assay: Cell cycle arrest in TNF-alpha-stimulated human HeLa cells transfected with NFkappaB-Luc assessed as accumulation at diploid S phase at 1 uM after 8 hrs by using propidium iodide staining by FACS analysis; assay type: functional
HeLa [31] = assay: Cell cycle arrest in human HeLa cells transfected with NFkappaB-Luc assessed as accumulation at diploid S phase at 20 uM after 8 hrs by using propidium iodide staining by FACS analysis; assay type: functional
HeLa [32] = assay: Cell cycle arrest in TNF-alpha-stimulated human HeLa cells transfected with NFkappaB-Luc assessed as accumulation at diploid G1 phase at 5 uM after 8 hrs by using propidium iodide staining by FACS analysis; assay type: functional

## CCOC(=O)[C@]1(c2ccccc2)N=C(c2ccccc2)N(Cc2ccccc2)[C@@H]1c1ccccc1 (racemic)
HeLa [1]
  Activity: 65.96%
[2]
  Activity: 1.18 mL⁻¹
HeLa [3]
  Activity: 14.57%
HeLa [4]
  Activity: 0%
HeLa [5]
  Activity: 2%
HeLa [6]
  Activity: 63.22%
Blood [7]
  Activity: Dose-dependent effect
Blood [7]; read-out: IC50
  pIC50: 6.10
Blood [7]; read-out: Log IC50 (converted)
  IC50: 794 nM
[8]
  Activity: 1.06 mL⁻¹
HeLa [9]
  Activity: 19.29%
HeLa [10]
  Activity: 64.3%
HeLa [11]
  Activity: 0%
HeLa [12]
  Activity: 14.03%
HeLa [13]
  Activity: 6.27%
HeLa [14]
  Activity: 1.91%
HeLa [15]
  Activity: 13.84%
HeLa [16]
  Activity: 5.59%
HeLa [17]
  Activity: 1.29%
HeLa [18]
  Activity: 16.8%
HeLa [19]
  Activity: 21.47%
HeLa [20]
  Activity: 3.86%
HeLa [21]
  Activity: 1.91%
HeLa [22]
  Activity: 1.91%
HeLa [23]
  Activity: 100%
[24]
  pEC50: 5.60
HeLa [25]
  Activity: 22.8%
HeLa [26]
  Activity: 68.19%
Blood [27]
  pIC50: 5.60
HeLa [28]
  Activity: 0%
HeLa [29]
  Activity: 1.14%
HeLa [30]
  Activity: 22.9%
HeLa [31]
  Activity: 21.48%
HeLa [32]
  Activity: 66.37%
